Source: patent publication US9879013B2, “Purinone derivative” (ONO PHARMACEUTICAL CO., LTD., priority 2010, dated 2018)

What was measured:
Btk = Btk (Homo sapiens (Human), UniProt Q06187); assay: Btk enzyme inhibitory activity (Z'-LYTE Kinase Assay Kit-Tyr1 peptide); format: biochemical; settings: Tyr-1 peptide 4 μM, Btk 5 nM, ATP 36 μM, 1 hour at 30° C.
Experimental: The Btk enzyme inhibitory activity was measured, based on the protocol provided by the manufacturer, using Btk (Invitrogen Corporation) and the Z′-LYTE® Kinase Assay Kit-Tyr1 peptide (Invitrogen Corporation), which contained the following reagents: Tyr-1 peptide, Thy-1 phosphopeptide, 5× kinase buffer, ATP, development reagent B, development buffer, and stop reagent.
5 μL/well of a solution of the test compound diluted with dimethyl sulfoxide (DMSO), or DMSO, and 10 μL/well of the substrate/enzyme mixture solution were dispensed to a 96-well assay plate and a reaction was carried out for 20 minutes at 30° C. […] The enzymatic reaction was then stopped by adding 10 μL of the stop solution.
The percent inhibition (%) by the test compound was calculated using the following equation. percent inhibition (%) of phosphorylation=1−{(AC−AX)/(AC−AB)}×100 [E1]

Fyn = Fyn (Homo sapiens (Human), UniProt P06241); assay: Fyn inhibitory activity, selectivity for Btk (Z'-LYTE kinase assay); format: biochemical; settings: ratio of the IC50 values of the individual kinases
Experimental: (§1) The inhibitory activity for other kinases (for example, Lck, Fyn, and LynA (all from Invitrogen Corporation) was measured in the same manner as described above using the particular kinase in place of the Btk.

LynA = LynA (Homo sapiens (Human), UniProt P07948); assay: LynA inhibitory activity, selectivity for Btk (Z'-LYTE kinase assay); format: biochemical; settings: ratio of the IC50 values of the individual kinases
Experimental: as §1

Human CYP2C19 = Human CYP2C19 (Homo sapiens (Human), UniProt P33261); assay: Inhibitory action on human CYP2C19; format: in vitro ADME
Experimental: Measurement of the Inhibitory Activity on Drug-Metabolizing Enzymes (Inhibitory Action on Human CYP2C8 and Human CYP2C19)
The reaction was carried out in a 96-well plate. The positive control substances (CYP2C8: ketoconazole, CYP2C19: tranylcypromine) were adjusted (CYP2C8: 0.6 and 6 mmol/L, CYP2C19: 0.9 and 9 mmol/L) with DMSO to concentrations that were 300 times the final concentration, and solutions were prepared (CYP2C8: 8 and 80 μmol/L, CYP2C19: 12 and 120 μmol/L) by 75× dilution with purified water that contained 2.7% acetonitrile. The test compounds were adjusted to […] with DMSO and were adjusted to 4 and 40 μmol/L by 75× dilution with purified water that contained 2.7% acetonitrile. A reaction mixture was then prepared (the numerical values are final concentrations) by the addition of potassium phosphate buffer (pH 7.4), magnesium chloride ([…]), substrate (CYP2C8: dibenzylfluorescein 1 μmol/L, CYP2C19: 3-cyano-7-ethoxycoumarin 25 μmol/L), and E. coli-expressed liver microsome CYP2C8 (Cypex, 10 pmol/L) and CYP2C19 (Cypex, 3 pmol/L). 100 μL of this reaction mixture and 50 μL of the test compound prepared as described above and the positive control solution prepared as described above were dispensed into each well and pre-incubation was carried out at 10 minutes for 37° C. The reaction was started by the addition of 50 μL NADPH solution (final concentration=1 mmol/L) and incubation was carried out for 30 minutes at 37° C. The fluorescence intensity was measured (CYP2C8: excitation wavelength=485 nm, fluorescence wavelength=538 nm; CYP2C19: excitation wavelength=409 nm, fluorescence wavelength=460 nm) immediately after the addition of the NADPH and after incubation for 30 minutes.

Human liver cells = assay: Ability to reduce the mitochondrial membrane potential in cultured human hepatoma cells (JC-1); format: cell-based; settings: JC-1, exposure for 24 hours, read-out: Ability to lower the mitochondrial membrane potential (IC50 (μM))
Text: Measurement of the Cytotoxicity and Ability to Reduce the Mitochondrial Membrane Potential in Cultured Human Hepatoma Cells
Tissue that maintains an aerobic equilibrium, e.g., the kidneys and heart, and tissue that is exposed to high drug concentrations and carries out drug metabolism, e.g., the liver, are known to be sensitive to mitochondrial dysfunction (Drug Discovery Today, 12 (17-18), 777-785, 2007). The reduction or extinction of the mitochondrial membrane potential by a drug is caused by the direct inhibition of the electron transport system, decoupling of electron transport from ATP synthase, or the opening of a mitochondrial membrane permeability transition pore. As a consequence, measurement of the mitochondrial membrane potential of liver cells can provide a parameter for hepatotoxicity.
Human liver cells were seeded into a collagen-coated 96-well plate at a cell density of 30,000 cells/well and incubation was carried out overnight in an incubator at 37° C. in 5% CO2-95% air. The cultured cells were stained for 1 hour with 5,5′,6,6′-tetrahydro-1,1′,3,3′-tetramethyl-benzamidazolocarbocyanine iodide (JC-1) followed by treatment with the test compound. The test compound was dissolved in DMSO and then diluted with the liquid culture medium Hepatocyte Culture Medium (HCM) and added to the cells. The test compound treatment concentrations were 0, 6.25, 12.5, 25, 50, 100, 200, and 400 μmol/L. After exposure to the test compound for 24 hours, measurement was performed with a SpectraMax plate reader (Molecular Devices, LLC) at an excitation wavelength of 485 nm and a fluorescence wavelength of 538 nm and an excitation wavelength of 544 nm and a fluorescence wavelength of 590 nm. The membrane potential was determined by the ratio between the 544 nm/590 nm measurement value and the 485 nm/538 nm measurement value. After this, the ATP concentration in the cells was measured using a Celltiter Glo luminescent assay kit (Promega Corporation) in order to evaluate the cell toxicity of the test compound. The cells were lysed by the assay buffer provided with the measurement kit and the concentration of the ATP released from the cells was measured using the luciferin-luciferase enzyme activity as the index. The emission was measured using a SpectraMax plate reader. […] The ability to lower the mitochondrial membrane potential of the test compounds and the cytotoxicity of the test compounds are given in Table 3 below.

[1] = Stability in the rat liver microsome; settings: 0.5 mg/mL microsomes, NADPH, 15 minutes at 37° C.
Experimental: (§2) Evaluation of the Stability in the Rat and Human Liver Microsome
(§3) A 0.25 mmol/L solution was prepared by diluting the test compound (10 mmol/L DMSO solution, 5 μL) with an aqueous 50% acetonitrile solution (195 μL).
(§4) 20 μL was collected immediately after the start and the reaction was stopped by the addition to 180 μL of acetonitrile that contained an internal standard (warfarin). 20 μL of this solution was stirred with 180 μL of an aqueous 50% acetonitrile solution on a filter plate for protein depletion followed by suction filtration, and the filtrate was used as the standard sample.
(§5) The previously indicated reaction solution was incubated for 15 minutes at 37° C., and 20 μL was then added to 180 μL cold acetonitrile (contained the internal standard warfarin) to stop the reaction. 20 μL of this was stirred with 180 μL of an aqueous 50% acetonitrile solution on a filter plate for protein depletion followed by suction filtration, and the filtrate was used as the standard sample.

[2] = Stability in the human liver microsome; settings: 0.5 mg/mL microsomes, NADPH, 15 minutes at 37° C.
Experimental: as §2, §3, §4, §5

Chain of Fyn (P06241 whole entry): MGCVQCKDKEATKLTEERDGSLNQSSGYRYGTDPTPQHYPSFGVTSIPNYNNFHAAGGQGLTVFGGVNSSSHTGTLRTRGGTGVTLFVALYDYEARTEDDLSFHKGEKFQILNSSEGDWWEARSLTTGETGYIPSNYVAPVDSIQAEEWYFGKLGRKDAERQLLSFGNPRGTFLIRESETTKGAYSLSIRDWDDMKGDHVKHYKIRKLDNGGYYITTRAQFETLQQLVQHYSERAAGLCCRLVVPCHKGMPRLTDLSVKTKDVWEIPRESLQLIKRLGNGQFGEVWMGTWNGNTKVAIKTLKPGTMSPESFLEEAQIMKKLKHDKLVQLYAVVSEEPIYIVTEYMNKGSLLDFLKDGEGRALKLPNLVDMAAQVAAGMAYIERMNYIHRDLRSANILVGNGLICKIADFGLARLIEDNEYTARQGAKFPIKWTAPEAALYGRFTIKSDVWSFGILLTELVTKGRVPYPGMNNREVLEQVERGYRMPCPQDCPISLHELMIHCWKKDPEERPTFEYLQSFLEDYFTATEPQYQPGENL
Chain of LynA (P07948 whole entry): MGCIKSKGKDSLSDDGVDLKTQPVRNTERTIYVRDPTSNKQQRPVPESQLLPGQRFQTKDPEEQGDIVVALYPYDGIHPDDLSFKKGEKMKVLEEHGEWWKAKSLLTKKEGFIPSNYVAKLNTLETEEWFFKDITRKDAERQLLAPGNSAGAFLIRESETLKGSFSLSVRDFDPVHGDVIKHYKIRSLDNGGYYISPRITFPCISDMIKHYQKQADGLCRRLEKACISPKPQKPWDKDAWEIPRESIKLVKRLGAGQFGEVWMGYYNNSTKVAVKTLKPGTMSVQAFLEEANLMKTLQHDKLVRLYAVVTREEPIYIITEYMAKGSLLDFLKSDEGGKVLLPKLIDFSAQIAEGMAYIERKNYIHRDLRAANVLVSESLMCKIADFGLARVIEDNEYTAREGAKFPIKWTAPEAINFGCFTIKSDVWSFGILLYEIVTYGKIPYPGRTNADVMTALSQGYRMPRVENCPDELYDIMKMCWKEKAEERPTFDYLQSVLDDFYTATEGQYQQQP
Chain of Btk (Q06187 whole entry): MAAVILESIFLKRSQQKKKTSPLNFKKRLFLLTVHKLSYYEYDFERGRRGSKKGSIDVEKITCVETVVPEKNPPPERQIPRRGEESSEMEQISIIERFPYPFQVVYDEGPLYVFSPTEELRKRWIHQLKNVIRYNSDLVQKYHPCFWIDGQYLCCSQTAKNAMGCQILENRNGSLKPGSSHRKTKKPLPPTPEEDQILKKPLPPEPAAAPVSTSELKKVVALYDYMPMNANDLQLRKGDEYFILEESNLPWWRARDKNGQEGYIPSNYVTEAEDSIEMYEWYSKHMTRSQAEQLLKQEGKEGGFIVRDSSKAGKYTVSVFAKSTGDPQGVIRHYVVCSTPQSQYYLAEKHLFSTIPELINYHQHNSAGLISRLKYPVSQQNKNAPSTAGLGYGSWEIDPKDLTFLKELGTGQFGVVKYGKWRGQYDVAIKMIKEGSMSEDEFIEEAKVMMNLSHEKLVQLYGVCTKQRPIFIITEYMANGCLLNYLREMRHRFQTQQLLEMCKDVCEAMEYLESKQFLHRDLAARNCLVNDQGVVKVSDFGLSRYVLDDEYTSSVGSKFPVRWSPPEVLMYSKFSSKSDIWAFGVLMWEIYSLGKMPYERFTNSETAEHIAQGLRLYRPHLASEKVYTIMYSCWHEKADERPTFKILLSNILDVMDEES
Chain of Human CYP2C19 (P33261 whole entry): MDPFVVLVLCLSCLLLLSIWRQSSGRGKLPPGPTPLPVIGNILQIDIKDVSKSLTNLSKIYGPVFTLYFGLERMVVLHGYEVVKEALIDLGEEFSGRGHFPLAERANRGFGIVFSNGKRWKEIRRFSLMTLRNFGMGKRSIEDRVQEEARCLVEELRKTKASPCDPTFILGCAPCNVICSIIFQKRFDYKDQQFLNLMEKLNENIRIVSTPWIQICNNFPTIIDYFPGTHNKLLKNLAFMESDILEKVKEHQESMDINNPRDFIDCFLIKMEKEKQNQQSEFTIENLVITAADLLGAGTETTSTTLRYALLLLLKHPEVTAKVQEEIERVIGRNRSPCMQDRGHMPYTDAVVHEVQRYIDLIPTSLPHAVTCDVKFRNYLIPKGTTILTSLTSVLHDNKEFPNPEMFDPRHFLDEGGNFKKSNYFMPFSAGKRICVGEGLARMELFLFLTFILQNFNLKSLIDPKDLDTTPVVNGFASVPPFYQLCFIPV

SMILES: C=CC(=O)N1CC(n2c(=O)n(-c3ccc(Oc4ccccc4)cc3)c3c(N)ncnc32)C1 [Example 8, 9-(1-acryloyl-3-azetidinyl)-6-amino-7-(4-phenoxyphenyl)-7,9-dihydro-8H-purin-8-one]
- IC50 (Btk): 0.004 µM
- Fyn[IC50]/Btk[IC50] (Fyn): 453
- LynA[IC50]/Btk[IC50] (LynA): 459
- IC50 (Human CYP2C19): > 10 µM
- IC50 (Human liver cells): 324 µM
- Residual ratio (%) in the rat liver microsome [1]: 100%
- Residual ratio (%) in the human liver microsome [2]: 87.0%
